Measurements: patent US6534278B1, “Screening for antibiotics” (priority 1997, dated 2003)
≈ marks a conversion by molar mass, not a printed value. Where a SMILES comes first, the peptide text is derived from it. Bridges are numbered along the chain shown (N, C = ends). [ ]: non-standard residue; d: D form. The star is where a group is joined. Ileψ(thiazoline)Cys = CC[C@H](C)[C@H](N)C1=N[C@H](C(=O)*)CS1; dOrn = NCCC[C@@H](N)C(=O)O; Dab = NCC[C@H](N)C(=O)O

Experiments:
[1] = test system: envA-cells containing the pNU305 plasmid; assay: microbe, parasite or virus in culture
Method: The optical density (OD) of each reaction mixture was measured at 655 nm. The lowest concentration of ramoplanin for which the OD reading was zero was taken to be the MIC.

[2] = test system: E. coli strain D22 carrying plasmid pNU305 (ampC and ampR genes from Citrobacter freundii, envA-); assay: β-lactamase induction screen (nitrocefin, OD 490 nm); assay type: cell-based; details: for [Induction] (limit of detection of β-lactamase induction): lowest concentration at which β-lactamase induction begins to increase, average over trials
Method: Screening Strain: E. coli strain D22 carrying plasmid pNU305 which contains the ampC and ampR genes from Citrobacter freundii, the envA-allele, a colEI origin of replication, and a tetracycline resistance determinant was grown in Luria Broth (LB; 5 g yeast extract, 10 g tryptone, and 10 g sodium chloride per liter of purified water) supplemented with E salts (400 μl E salts per 100 ml LB; the E salts contained-10 g magnesium sulfate heptahydrate, 100 g citric acidmonohydrate, 500 g anhydrous dibasic potassium phosphate, and 175 g of monosodium monoammonium phosphate tetrahydrate per liter of purified water).
Reaction Buffer: Nitrocefin was dissolved in dimethylsulfoxide (DMSO) to a concentration of 25 mg/ml and stored in 1 ml aliquots at −80° C. To prepare a reaction buffer, one of the nitrocefin/DMSO aliquots was added to 50 ml Z buffer with detergents (16.1 g dibasic sodium phosphate heptahydrate, 5.5 g monobasic sodium phosphate monohydrate, 0.75 g potassium chloride, 246 mg magnesium sulfate heptahydrate, 200 mg CTAB, and 100 mg sodium deoxycholate per liter, with the pH adjusted to 7.0) and the mixture was vortexed vigorously. The resulting suspension was filtered through Q5 filter paper (Fisher, Cat. No. 09-790-2e) to remove insoluble material. The filtered reaction buffer was stored at −80° C. until it was needed.
Growth Regimen: A single colony of the E. coli (i.e., a starter colony) was streaked onto an LB plate (with tetracycline) and incubated overnight at 37° C. Cells from the starter colony were then used to inoculate multiple colonies in LB (without tetracycline) to give a cell density no higher than 0.05 OD at 650 nm. The cells were grown at 37° C. under aerating conditions (i.e., shaken at 200 rpm in Erlenmeyer flasks having a volume of at least 10 times that of the culture.
Screening: When the cells had grown to a cell density of 0.25 to 0.8 OD at 650 nm, the culture was diluted to 0.25 OD. 80 μl of the diluted culture was added to each well of a microtiter plate containing 20 μl samples from a simulated natural product library, using an automated liquid dispensing robot from Titrtek (Huntsville, Ala.).
A positive control compound (25 μg/ml fosfomycin) was added to some of the wells and other wells were left untreated, as negative control samples. The samples were incubated on the plate for one hour at 37° C. without shaking.
Assay: 10 μl aliquots were transferred from each well to a second microtiter plate, using a Quadra 96 Model 320 robot (TomTec, Hamden, Conn.). 90 μl of the reaction buffer prepared above was added to each well using a automated liquiddispensing robot (Titrtek, Huntsville, Ala.). The OD of the samples was immediately read at […] in a plate reader (Biorad, Model 3550) to obtain zero point β-lactamase levels. The OD was measured again after incubating the plates at room temperature for 90 minutes (room temperature near 30° C.) or 120 minutes (room temperature below 30° C.).
Data Analysis: An induction value, I, was determined for each sample according to the following formula: I=(OD of sample—median OD)/(OD of induced cells—median OD); where the median OD was determined for each plate and the OD of induced cells was defined as the average of the readings from the control wells exposed to the 25 μg/ml fosfomycin. […] Any sample having I≧0.2 was considered to be positive. Since the assay is calorimetric, the zero-point levels were subtracted from the OD readings.
The same mixtures were also screened for increased β-lactamase using the new methods. The β-lactamase produced was plotted against the logarithm of ramoplanin concentration. FIGS. 3A and 3B show two examples of such. plots. As shown by the leftmost 6 and 7 solid black circles in FIGS. 3A and 3B, respectively, these plots show no effect of low concentrations of added ramoplanin on β-lactamase induction, up to a ramoplanin concentration of about 0.8 to 1.6 μg/ml. At this level, the β-lactamase induction level began to increase. […]

[3] = lowest concentration with OD 655 nm of zero, 5×10^5 cells/ml, 18 hours, 37° C.

Compound | MIC ([1]; Escherichia coli, 18 h) [µg/mL] | [Induction] (limit of detection of β-lactamase induction) [2] | MIC [1, 3] [µg/mL] | MIC ([1]; lowest concentration with OD 655 nm of zero, 5×10^5 cells/ml, 18 hours, 37° C., listed as ramoplanin) | detection concentration times less than the minimum inhibitory concentration (MIC / limit of detection) ([2]; 20/1.8) | [Induction] (limit of detection of β-lactamase induction) ([2]; listed as ramoplanin)
CC[C@@]1([C@@H]2O[C@@H]([C@H]3O[C@@](O)(CO)[C@H](C)C[C@@H]3C)C[C@@H]2C)CC[C@H]([C@]2(C)CC[C@]3(C[C@H](O)[C@@H](C)[C@@H]([C@@H](C)[C@@H](OC)[C@H](C)C(=O)O)O3)O2)O1 [Monensin] | > 100 | none | – | – | – | –
N[C@@H]1CON=C1O [Cycloserine] | 12.5 (≈ 122 µM) | 20 µg/mL | – | – | – | –
CC[C@H]1OC(=O)[C@H](C)[C@@H](O[C@H]2C[C@@](C)(OC)[C@@H](O)[C@H](C)O2)[C@H](C)[C@@H](O[C@@H]2O[C@H](C)C[C@H](N(C)C)[C@H]2O)[C@](C)(O)C[C@@H](C)C(=O)[C@H](C)[C@@H](O)[C@]1(C)O [Erythromycin] | 0.8 (≈ 1.09 µM) | none | – | – | – | –
CC(C)C[C@@H]1NC(=O)[C@@H](Cc2ccccc2)NC(=O)[C@H](CCN)NC(=O)[C@@H](NC(=O)[C@H](CCN)NC(=O)[C@@H](N)[C@@H](C)O)CCNC(=O)[C@H]([C@@H](C)O)NC(=O)[C@H](CCN)NC(=O)[C@H](CCN)NC1=O [Polymyxin B nonapeptide] (H-T[Dab][Dab][Dab][dF]L[Dab][Dab]T; lactam 3-C; N-terminus assumed) | – | 6.3 µg/mL | >100 | – | – | –
Moenomycin | – | 1 µg/mL | 2 | – | – | –
O=C(O)c1cn(C2CC2)c2cc(N3CCNCC3)c(F)cc2c1=O [Ciprofloxacin] | 0.01 (≈ 0.0302 µM) | none | – | – | – | –
CO[C@H]1/C=C/O[C@@]2(C)Oc3c(C)c(O)c4c(O)c(c(/C=N/N5CCN(C)CC5)c(O)c4c3C2=O)NC(=O)/C(C)=C\C=C\[C@H](C)[C@H](O)[C@@H](C)[C@@H](O)[C@@H](C)[C@H](OC(C)=O)[C@@H]1C [Rifampicin] | 0.06 (≈ 0.0729 µM) | – | – | – | – | –
CO[C@@]1(NC(=O)Cc2cccs2)C(=O)N2C(C(=O)O)=C(COC(N)=O)CS[C@@H]21 [Cefoxitin] | 7 (≈ 16.4 µM) | 2.5 µg/mL | – | – | – | –
C[C@@H]1O[C@@H]1P(=O)(O)O [Fosfomycin] | 0.7 (≈ 5.07 µM) | 0.7 µg/mL | – | – | – | –
Ramoplanin | – | 1.8 µg/mL | 20 | about 20 μg/ml | about 11 times | about 1.8 μg/ml
CC[C@H](C)[C@H](N)C1=N[C@H](C(=O)N[C@@H](CC(C)C)C(=O)N[C@H](CCC(=O)O)C(=O)N[C@H](C(=O)N[C@H]2CCCCNC(=O)[C@H](CC(N)=O)NC(=O)[C@@H](CC(=O)O)NC(=O)[C@H](Cc3cnc[nH]3)NC(=O)[C@@H](Cc3ccccc3)NC(=O)[C@H]([C@@H](C)CC)NC(=O)[C@@H](CCCN)NC2=O)[C@@H](C)CC)CS1 [Bacitracin] ({Ileψ(thiazoline)Cys}-L[dE]IK[dOrn]I[dF]H[dD]N; lactam 4-C) | – | 1.6 µg/mL | 12.5 (≈ 8.79 µM) | – | – | –
Triton X-100 | – | 100 µg/mL | 500 | – | – | –
Polymyxin B sulfate | – | 0.2 µg/mL | 0.4 | – | – | –
CCCCCCCCCCCCOS(=O)(=O)[O-].[Na+] [Sodium dodecyl sulfate] | 2 | 4 µg/mL | – | – | – | –
CN[C@H](CC(C)C)C(=O)N[C@H]1C(=O)N[C@@H](CC(N)=O)C(=O)N[C@H]2C(=O)N[C@H]3C(=O)N[C@H](C(=O)N[C@H](C(=O)O)c4cc(O)cc(O)c4-c4cc3ccc4O)[C@H](O)c3ccc(c(Cl)c3)Oc3cc2cc(c3O[C@@H]2O[C@H](CO)[C@@H](O)[C@H](O)[C@H]2O[C@H]2C[C@](C)(N)[C@H](O)[C@H](C)O2)Oc2ccc(cc2Cl)[C@H]1O [Vancomycin] | 10 (≈ 6.9 µM) | 4 µg/mL | – | – | – | –
